The values below come from article PMC7457137, “An Integrated Pharmacokinetic Study of an Acanthopanax senticosus Extract Preparation by Combination of Virtual Screening, Systems Pharmacology, and Multi-Component Pharmacokinetics in Rats” (Frontiers in Pharmacology, 2020).

The data set in a line: Multi-component PK in rats after i.v. administration of ASEP. The conditions noted are these: rat plasma, mean ± SD, n=3. It counts as in vivo, Sprague-Dawley rats. How it is done:
The animal experiments were conducted in line with the Guide for the Care and Use of Laboratory Animals (published by the USA National Institutes of Health, NIH Publication no. 85-23, revised 1996), which were approved by the Animal Care and Use Committee of the College of Animal Science (College of Bee Science), Fujian Agriculture and Forestry University (Approval Number: […]2019004). […] All rats were acclimated to the facilities and environment for 7 days before the experiments. […] The gradient elution was carried out by the mobile phase water with 0.1% formic acid (A) and methanol (B). […] The column temperature and flow rate were at 35 °C and 0.5 ml/min, resepectively. 5 μl sample solution was injected for the HPLC-MS analysis. The electrospray ionization (ESI) source conditions were as follows: block heating temperature was kept at 400 °C; desolvation line temperature was set at 250 °C; dry gas (nitrogen) flow rate was kept at 15 L/min; and auxiliary gas (nitrogen) flow rate was 3 L/min. […] The plasma samples were separated by centrifugation, followed by storing at -20 °C before analysis. […] A DAS 3.0 software (Chinese Pharmacologic Society, Beijing, China) was used to calculate the noncompartmental PK parameters. All the results were presented as mean ± SD, and statistics analysis was done with a single-tailed Student's t test in the work.

Where [1] appears, read: High group: single i.v. 3.52 ml/kg of 5 times concentrated ASEP.
[2] abbreviates: Low group: single i.v. 1.76 ml/kg of 5 times concentrated ASEP.

Consider `O=C(/C=C/c1ccc(O)c(O)c1)O[C@@H]1C[C@@](O)(C(=O)O)C[C@@H](O)[C@@H]1O` [5-CQA, 5-caffeoylquinic acid], for which, under setting [1], the “AUC0-∞” value was 4,013.66 ± 42.67 h·ng/ml, the AUC(0-t) was 4,006.71 ± 42.76 h·ng/ml, the Cl was 0.86 ± 0.01 L/h and the MRT0-t was 19.8 ± 0 min. Besides, under setting [1], the “MRT0-∞” value was 21 ± 0 min. Moreover, under setting [2], the “AUC0-∞” value was 2,249.80 ± 109.69 h·ng/ml, the AUC(0-t) is on record as 2,244.68 ± 109.65 h·ng/ml, the Cl came out at 0.77 ± 0.04 L/h and the MRT0-t came to 26.4 ± 1.2 min. Besides, the “MRT0-∞” value under setting [2] amounted to 27.6 ± 1.2 min.
